Measurements reported in patent publication US4806547A, “Isoquinoline derivatives, analgesic compounds thereof and method of treating pain” (Dr. Lo. Zambeletti SPA, priority 1986, dated 1989).
Where a name gives a salt, the structure may show the parent alone. Read-outs that look alike come from different tables or passages of the source.

Legend:
mice = assay: Mouse Tail-flick test (analgesic activity); assay type: in vivo, mouse (male Charles River); details: 30 min after dosing; for ED50: Mus musculus, sc, 0.5 h, s.c., mice doubling the initial reaction time
Protocol: Mouse Tail-flick test (Modified from the procedure published by D'Amour et al., J. Pharm. Exptl. Ther.72, 74/1941).
Male Charles River mice, average weight 26 g, are used. Selection is carried out before beginning of experiments: only mice whose reaction time is less than 8 sec are used. They are randomly distributed into groups of 10 and dosed with compounds under test, with positive and negative controls being included.
Compounds under test are administered subcutaneously in isotonic saline in a volume of 20 ml. Kg^-1. 30 min later mice are placed again under heat source (Socrel apparatus) and reaction time is recorded.
The analgesic activity of the test compound is expressed as the percent number of mice doubling the initial time within a group. [formula]

[1] = target: μ opioid receptor (μ sites) (Cavia porcellus, UniProt A0ACM8Q262); assay: Receptor binding to μ sites (3H-DAGO)
Protocol: Radio receptor binding to μ and K sites is performed on fresh guinea pig brain homogenate prepared according to Kosterlitz.
(§1) Whole brain without cerebellum is homogenized in 50 mM, Tris-buffer (pH 7.4 at 0° C.) and centrifuged at 49,000×g×10 min.
(§2) The pellet is then resuspended in the same buffer, incubated at 37° C. for 45 min. and centrifuged again.
(§3) 1.9 ml of the final homogenate (1:100 in Tris-pH 7.4, 0° C.) is used for the binding assay.
^3 H[D--Ala^2, MePhe^4, Gly--ol^5 ]
The filters are then dryed, solubilized in Filtercount and the radioactivity monitored. Non specific binding is determined in the presence of 10^-6 M Naloxone.
(§4) A concentration of radioligand near KD is used in the binding assays evaluating our compounds.

[2] = target: T1, K (Kappa) opioid receptor (K sites) (Cavia porcellus, UniProt P41144); assay: Receptor binding to K sites (tritiated Ethylketocyclazocine); parameters: species or system guinea pig
T1 construct: fresh guinea pig brain homogenate; from tissue; host or cells: guinea pig whole brain without cerebellum, homogenate
Protocol: Radio receptor binding to μ and K sites is performed on fresh guinea pig brain homogenate prepared according to Kosterlitz. (1981).
as §1, §2, §3
Binding to K sites (Magnan J., 1982)
The binding of tritiated Ethylketocyclazocine to brain homogenate is measured in the presence of 100 nanomolar D--Ala--D--LeuEnkephalin (DADLE) and 100 nanomolar DAGO, added to saturate the δ and μ opioid receptors respectively.
Final homogenate with solutions of the cold ligand and of the labelled ligand is incubated for 40 min. at 25° C., filtered through Whatman GF/C glass filter discs and washed.
The radioactivity bound to the filters is counted by liquid scintillation spectrophotometry.
MR 2266.500 nM is utilized to determine the saturable binding.
For the calculation of the kinetic parameters of the binding of labelled and unlabelled ligands, the equilibrium dissociation constant (KD), the inhibition constant (Ki) and the maximum number of binding sites (B max) are determined from saturation curves and competition experiments (Hill 1910; Scatchard 1949; Cheng and Prusoff 1973); Gillan et al. 1980).
as §4

[3] = read-out: RECEPTOR BINDING Ki μ, guinea pig brain homogenate, 25° C., 40 min
[4] = guinea pig brain homogenate, 25° C., 40 min, read-out: RECEPTOR BINDING Ki μ
[5] = read-out: RECEPTOR BINDING Ki K, guinea pig brain homogenate, tritiated Ethylketocyclazocine with 100 nM DADLE and 100 nM DAGO, 25° C., 40 min

μ opioid receptor (μ sites), sequence (A0ACM8Q262 1-400): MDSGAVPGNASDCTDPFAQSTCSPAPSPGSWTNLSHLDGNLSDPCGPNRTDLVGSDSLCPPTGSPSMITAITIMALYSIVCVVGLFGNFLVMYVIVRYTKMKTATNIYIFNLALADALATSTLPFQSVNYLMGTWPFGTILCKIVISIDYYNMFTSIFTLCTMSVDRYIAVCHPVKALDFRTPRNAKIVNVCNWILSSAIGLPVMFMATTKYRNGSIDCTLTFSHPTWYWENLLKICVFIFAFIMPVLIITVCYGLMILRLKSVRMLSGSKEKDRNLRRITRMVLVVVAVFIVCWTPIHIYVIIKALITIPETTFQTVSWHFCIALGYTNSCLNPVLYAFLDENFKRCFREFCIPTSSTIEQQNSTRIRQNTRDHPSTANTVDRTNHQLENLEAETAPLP
T1 sequence (P41144 whole entry): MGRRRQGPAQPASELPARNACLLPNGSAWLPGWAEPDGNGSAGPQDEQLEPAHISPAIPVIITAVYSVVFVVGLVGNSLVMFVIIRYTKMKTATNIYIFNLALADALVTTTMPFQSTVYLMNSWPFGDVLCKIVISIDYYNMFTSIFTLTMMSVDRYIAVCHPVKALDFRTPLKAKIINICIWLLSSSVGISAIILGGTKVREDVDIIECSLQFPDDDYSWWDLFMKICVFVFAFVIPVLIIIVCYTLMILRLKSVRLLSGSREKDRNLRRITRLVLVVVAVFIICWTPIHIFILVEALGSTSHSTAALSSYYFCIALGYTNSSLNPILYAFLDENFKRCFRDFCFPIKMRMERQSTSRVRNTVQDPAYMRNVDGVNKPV

Structure (SMILES)	ED50 (mice)	Ki [1, 3]	Ki [1, 4]	Ki [2, 5]	further results
CN(C)CC1c2ccccc2CCN1C(=O)Cc1ccc(Cl)c(Cl)c1 (single isomer, unassigned) [Example 3, hemihydrate]	0.032 mg/kg	286 nM	–	–	Ki [2]: 2.37 nM
O=C(Cc1ccc(Cl)c(Cl)c1)N1CCc2ccccc2C1CN1CCCC1 (single isomer, unassigned) [Example 9, (-)-1-[1-pyrrolidinylmethyl)-2-(3,4-dichlorophenylacetyl)-1,2,4-tetrahydroisoquinoline (-)-tartrate]	0.009 mg/kg	–	–	–	–
CN(C)CC1c2ccccc2CCN1C(=O)Cc1ccc(Cl)c(Cl)c1 (stereo not drawn) [Example 1, 1-dimethylaminomethyl-2-(3,4-dichlorophenyl)-acetyl-1,2,3,4-tetrahydroisoquinoline hydrochloride]	0.041 mg/kg	415 nM	–	–	Ki ([2]; guinea pig brain homogenate, tritiated Ethylketocyclazocine with 100 nM DADLE and 100 nM DAGO, 25° C., 40 min, read-out: RECEPTOR BINDING Ki K): 1.59 nM
CN(C)CC1c2ccccc2CCN1C(=O)Cc1ccc(Br)cc1 (stereo not drawn) [Example 4, 2-(4-bromophenylacetyl)-1-dimethylaminomethyl-1,2,3,4-tetrahydroisoquinoline hydrochloride]	0.25 mg/kg	–	597 nM	–	Ki [2]: 3.19 nM
CN(C)CC1c2ccccc2CCN1C(=O)Cc1ccc([N+](=O)[O-])cc1 (stereo not drawn) [Example 5, 1-dimethylaminomethyl-2-(nitrophenylacetyl)-1,2,3,4-tetrahydroisoquinoline hydrochloride hemihydrate]	0.23 mg/kg	–	655 nM	5.72 nM	–
CN(C)CC1c2ccccc2CCN1C(=O)Cc1ccccc1[N+](=O)[O-] (stereo not drawn) [Example 6, 1-dimethylaminomethyl-2-(2-nitrophenylacetyl)-1,2,3,4-tetrahydroisoquinoline hydrochloride hemihydrate]	–	–	> 10000 nM	30.6 nM	–
O=C(Cc1ccc(Cl)c(Cl)c1)N1CCc2ccccc2C1CN1CCCC1 (stereo not drawn) [Example 7, 1-[1-pyrrolidinylmethyl)-2-(3,4-dichlorophenylacetyl)-1,2,3,4-tetrahydroisoquinoline hydrochloride]	0.016 mg/kg	–	–	–	–
O=C(Cc1ccc(Br)cc1)N1CCc2ccccc2C1CN1CCCC1 (stereo not drawn) [Example 10, 1-(1-pyrrolidinylmethyl)-2-(4-bromophenylacetyl)-1,2,3,4-tetrahydroisoquinoline hydrochloride]	0.031 mg/kg	50 nM	–	–	Ki [2]: 0.57 nM
O=C(Cc1ccc([N+](=O)[O-])cc1)N1CCc2ccccc2C1CN1CCCC1 (stereo not drawn) [Example 11, 1-(1-pyrrolidinylmethyl)-2-(4-nitrophenylacetyl)-1,2,3,4-tetrahydroisoquinoline hydrochloride hemihydrate]	0.016 mg/kg	62 nM	–	0.64 nM	–
O=C(Cc1cccc([N+](=O)[O-])c1)N1CCc2ccccc2C1CN1CCCC1 (stereo not drawn) [Example 12, 1-(1-pyrrolidinylmethyl)-2-(3-nitrophenylacetyl)-1,2,3,4-tetrahydroisoquinoline hydrochloride hydrate]	0.23 mg/kg	–	–	–	–
O=C(Cc1ccccc1[N+](=O)[O-])N1CCc2ccccc2C1CN1CCCC1 (stereo not drawn) [Example 13, 1-(1-pyrrolidinylmethyl)-2-(2-nitrophenylacetyl)-1,2,3,4-tetrahydroisoquinoline hydrochloride hemihydrate]	–	–	1850 nM	7.94 nM	–
O=C(Cc1ccc(C(F)(F)F)cc1)N1CCc2ccccc2C1CN1CCCC1 (stereo not drawn) [Example 14, 1-(1-pyrrolidinylmethyl)-2-(4-trifluoromethylacetyl)-1,2,3,4-tetrahydroisoquinoline hydrochloride]	0.33 mg/kg	–	–	–	–
N#Cc1ccc(CC(=O)N2CCc3ccccc3C2CN2CCCC2)cc1 (stereo not drawn) [Example 15, 1-(1-pyrrolidinylmethyl)-2-(4-cyanophenylacetyl)-1,2,3,4-tetrahydroisoquinoline hydrochloride sesquihydrate]	–	–	–	–	MOUSE TAIL FLICK % protection (mice; at 1 mg/kg s.c.): 70%
